Legend:
celastrol signature = assay: Connectivity Map query with the celastrol signature; assay type: cell-based, human; set-up: key to celastrol score (connectivity score): connectivity score, based on Kolmogorov-Smirnov statistic; settings: for celastrol score (connectivity score): enrichment of the celastrol signature (1.25 μM celastrol at 6 h, LNCaP) in the compound's Connectivity Map profiles, 6 hr treatment
Description: (§1) Indeed, a major challenge in cell-based chemical biology and chemical genomics is the identification of compounds' targets (Gardner et al., 2003). We hypothesized that gene expression signatures could be used to identify compound action based on the similarity of such compound-induced signatures to signatures of existing drugs of known mechanism. We therefore employed a collection of gene expression profiles of drug-treated cell lines that was developed in our lab, termed the Connectivity Map (Lamb et al., 2006). This database comprises 453 genome-wide Affymetrix expression profiles derived from the treatment of human cell lines with 164 small molecules, primarily FDA-approved drugs. A 6 hr treatment time was chosen in an attempt to capture the primary, and potentially mechanistic, effects of the compounds rather than the downstream phenotypic consequences.
(§2) In order to use the Connectivity Map to gain insight into celastrol and gedunin function, we first defined a gene expression signature of celastrol and gedunin activity. The expression signatures of celastrol and gedunin were derived by expression profiling of RNA from LNCaP cells treated with celastrol (1.25 μM), gedunin (20 μM), and vehicle (DMSO) for 6 hr; signatures were defined using comparative marker selection to identify transcripts that distinguished between the compound- and vehicle-treated profiles by the signal-to-noise (SNR) metric. The enrichment of these signatures in the gene expression profiles of the Connectivity Map database was then assessed using a gene enrichment metric, the connectivity score, based on the Kolmogorov-Smirnov statistic (Lamb et al., 2003).
(§3) The celastrol and gedunin signatures were developed from RMA-processed microarray data from LNCaP cells treated with 1.25 μM celastrol or 20 μM gedunin for 6 hours. Comparative marker selection was used to identify markers that distinguished celastrol- and/or gedunin-treated samples from vehicle-treated samples by the median SNR (Golub et al., 1999). The top 50 markers that increased and decreased relative to vehicle-treated controls were used as the signatures.
(§4) The current version of the Connectivity Map data set (build01) contains genome-wide expression data for 453 treatment and vehicle control pairs, representing 164 distinct small molecules. Cell treatments and Affymetrix profiling were predominantly carried out in MCF7 cells with 6 hr treatments as detailed (Table 4) (Lamb et al., 2006). Enrichment of the induced and repressed genes of a signature within each Connectivity Map treatment profile was estimated with a metric based on the Kolmogorov-Smirnov statistic as described (Lamb et al., 2003, Lamb et al., 2006). Connectivity Map data are available at www.broad.mit.edu/cmap/ and GEO (accession number GSE5258).
(§5) For the celastrol and gedunin signatures, RMA-processed data was filtered and thresholded (min fold change=2, min absolute change=50, floor=10, ceiling=16000). Comparative marker selection (GenePattern) was used to identify markers that distinguished celastrol- and/or gedunin-treated samples from vehicle-treated samples by the median SNR. The top fifty markers that increased and decreased relative to vehicle treated controls were used as the celastrol, gedunin, or joint celastrol/gedunin signatures.
(§6) The current version of The Connectivity Map dataset (build01) contains genome-wide expression data for 453 treatment and vehicle control pairs, representing 164 distinct small molecules. Cell treatments were predominantly carried out in the MCF7 cell line for 6 h as detailed in Table 4. Affymetrix profiling was then carried out as described (Lamb et al., 2006).

gedunin signature = assay: Connectivity Map query with the gedunin signature; assay type: cell-based, human; set-up: key to gedunin score (connectivity score): connectivity score, based on Kolmogorov-Smirnov statistic; settings: for gedunin score (connectivity score): enrichment of the gedunin signature (20 μM gedunin at 6 hours, LNCaP) in the compound's Connectivity Map profiles, 6 hr treatment
Description: as §1, §2, §3, §4, §5, §6

SMILES | celastrol score (connectivity score) (celastrol signature) | gedunin score (connectivity score) (gedunin signature) | celastrol rank (celastrol signature; rank by celastrol score among 164 Connectivity Map compounds) | gedunin rank (gedunin signature; rank by gedunin score among 164 Connectivity Map compounds)
COC1=C2C[C@@H](C)C[C@H](OC)[C@H](O)[C@@H](C)/C=C(\C)[C@H](OC(N)=O)[C@@H](OC)/C=C\C=C(/C)C(=O)NC(=CC1=O)C2=O [geldanamycin, reference compound] | 0.676 | 0.74 |  | 
O=c1c(-c2ccc(O)cc2)coc2cc(O)cc(O)c12 [genistein] | 0.153 | 0.097 |  | 
CC#CCC(C)[C@H](O)/C=C/[C@@H]1[C@H]2C/C(=C/CCCC(=O)O)C[C@H]2C[C@H]1O (some centres unmarked) [iloprost] | 0.098 | 0.101 |  | 
COc1ccc2c(c1)c(CC(=O)O)c(C)n2C(=O)c1ccc(Cl)cc1 [indometacin] | 0.228 | 0.087 |  | 
C[C@H](CCC(=O)O)C[C@H](C)C[C@H](C)C(=O)/C=C(\O)[C@H](C)C[C@H](C)C/C=C/[C@@H](C)[C@@H](O)[C@@H](C)[C@@H](O)C[C@@H]1CC[C@@](C)([C@H]2CC[C@@](C)([C@@H](C)O)O2)O1 [ionomycin] | 0.556 | 0.129 |  | 
S=c1nc[nH]c2nc[nH]c12 [mercaptopurine] | −0.121 | 0.21 |  | 
Nc1ccc(O)c(C(=O)O)c1 [mesalazine] | 0 | 0 |  | 
CN(C)C(=N)N=C(N)N [metformin] | −0.029 | −0.108 |  | 
CN(C)c1ccc(O)c2c1C[C@H]1C[C@H]3[C@H](N(C)C)C(O)=C(C(N)=O)C(=O)[C@@]3(O)C(O)=C1C2=O [minocycline] | 0 | 0 |  | 
CCOC(=O)C1=C(C)NC(=S)NC1c1cccc(O)c1 (centres unmarked) [monastrol] | 0.226 | 0.069 |  | 
CC[C@@]1([C@@H]2O[C@@H]([C@H]3O[C@@](O)(CO)[C@H](C)C[C@@H]3C)C[C@@H]2C)CC[C@H]([C@]2(C)CC[C@]3(C[C@H](O)[C@@H](C)[C@@H]([C@@H](C)[C@@H](OC)[C@H](C)C(=O)O)O3)O2)O1 [monensin] | 0.454 | 0 |  | 
CCOC(=O)C1=C(C)NC(C)=C(C(=O)OC)C1c1cccc([N+](=O)[O-])c1 (centres unmarked) [nitrendipine] | 0 | 0 |  | 
COC(=O)Nc1nc2ccc(C(=O)c3cccs3)cc2[nH]1 [nocodazole] | 0.517 | 0.436 |  | 
CC(Cc1ccc(O)c(O)c1)C(C)Cc1ccc(O)c(O)c1 (centres unmarked) [nordihydroguaiaretic acid] | 0.264 | 0.286 |  | 
CO[C@@H]1[C@@H](OC(N)=O)[C@@H](O)[C@H](Oc2ccc3c(O)c(NC(=O)c4ccc(O)c(CC=C(C)C)c4)c(=O)oc3c2C)OC1(C)C [novobiocin] | 0.167 | 0.261 |  | 
CC[C@H]1/C=C/C=C/C[C@@H](C)[C@H](O)[C@@](C)(O)C(=O)[C@@H](C)[C@H](O)[C@@H](C)C(=O)[C@@H](C)[C@H](O)[C@@H](C)/C=C/C(=O)O[C@@H]2[C@H](C)[C@H](CC1)O[C@]1(CC[C@H](C)[C@H](C[C@@H](C)O)O1)[C@H]2C [oligomycin] | −0.491 | 0.305 |  | 
NC(=O)C(=O)O [oxamic acid] | −0.654 | 0 |  | 
O=C(O)CCc1nc(-c2ccccc2)c(-c2ccccc2)o1 [oxaprozin] | 0.445 | 0.562 |  | 
CC(=O)O[C@H]1C(=O)[C@@]2(C)[C@H]([C@H](OC(=O)c3ccccc3)[C@]3(O)C[C@H](OC(=O)[C@H](O)[C@@H](NC(=O)c4ccccc4)c4ccccc4)C(C)=C1C3(C)C)[C@]1(OC(C)=O)CO[C@@H]1C[C@@H]2O [paclitaxel] | 0.319 | 0 |  | 
N=C1C=CC(=C(c2ccc(N)cc2)c2ccc(N)cc2)C=C1 [pararosaniline] | 0.579 | 0.496 |  | 

SMILES | celastrol score (connectivity score) (celastrol signature) | gedunin score (connectivity score) (gedunin signature) | celastrol rank (celastrol signature; rank by celastrol score among 164 Connectivity Map compounds) | gedunin rank (gedunin signature; rank by gedunin score among 164 Connectivity Map compounds)
N=C(N)c1ccc(OCCCCCOc2ccc(C(=N)N)cc2)cc1 [pentamidine] | 0 | 0.456 |  | 
O=c1[nH]c2ccccc2c2ccccc12 [phenanthridinone] | 0.429 | −1 | 32 | 164
[H]/N=C(/N)N/C(=N/[H])NCCc1ccccc1 [phenformin] | 0.355 | 0 |  | 
Cc1ccc(N(CC2=NCCN2)c2cccc(O)c2)cc1 [phentolamine] | 0 | 0 |  | 
N=C(N)NC(N)=Nc1ccccc1 [phenyl biguanide] | 0 | 0 |  | 
Cc1cccc(Nc2cc(Cl)nc(SCC(=O)O)n2)c1C [pirinixic acid] | 0.226 | 0.055 |  | 
C[C@]12C=CC(=O)C=C1CC[C@@H]1[C@@H]2[C@@H](O)C[C@@]2(C)[C@H]1CC[C@]2(O)C(=O)CO [prednisolone] | 0 | 0 |  | 
CC(C)(Sc1cc(C(C)(C)C)c(O)c(C(C)(C)C)c1)Sc1cc(C(C)(C)C)c(O)c(C(C)(C)C)c1 [probucol] | 0.332 | 0 |  | 
CN1CCN(CCCN2c3ccccc3Sc3ccc(Cl)cc32)CC1 [prochlorperazine] | 0.559 | 0.507 |  | 
O=c1c(O)c(-c2ccc(O)c(O)c2)oc2cc(O)cc(O)c12 [quercetin] | −0.111 | −0.431 |  | 
O=C(c1ccc(OCCN2CCCCC2)cc1)c1c(-c2ccc(O)cc2)sc2cc(O)ccc12 [raloxifene] | 0 | 0.292 |  | 
Oc1ccc(C=Cc2cc(O)cc(O)c2)cc1 [resveratrol] | 0.266 | 0.4 |  | 
CS(=O)(=O)c1ccc(C2=C(c3ccccc3)C(=O)OC2)cc1 [rofecoxib] | 0.088 | 0.148 |  | 
CN(CCOc1ccc(CC2SC(=O)NC2=O)cc1)c1ccccn1 (centres unmarked) [rosiglitazone] | 0.098 | 0 |  | 
CC(=O)c1c(O)c(C)c(O)c(Cc2c(O)c3c(c(C(=O)/C=C/c4ccccc4)c2O)OC(C)(C)C=C3)c1O [rottlerin] | 0.355 | 0.209 |  | 
CO[C@H]1C[C@@H]2CC[C@@H](C)[C@@](O)(O2)C(=O)C(=O)N2CCCC[C@H]2C(=O)O[C@H]([C@H](C)C[C@@H]2CC[C@@H](O)[C@H](OC)C2)CC(=O)[C@H](C)/C=C(\C)[C@@H](O)[C@@H](OC)C(=O)[C@H](C)C[C@H](C)/C=C/C=C/C=C/1C [sirolimus] | −0.283 | 0 |  | 
O=C1CCc2c(ccc3ccccc23)O1 [splitomicin] | −0.525 | 0 |  | 
CN[C@@H]1C[C@H]2O[C@@](C)([C@@H]1OC)n1c3ccccc3c3c4c(c5c6ccccc6n2c5c31)C(=O)NC4 [staurosporine] | 0.092 | 0 |  | 
O=C(O)c1cc(/N=N/c2ccc(S(=O)(=O)Nc3ccccn3)cc2)ccc1O [sulfasalazine] | 0 | 0 |  | 
